Assay results: US10149876B2, “Tripterygium wilfordii extracts to overcome chemotherapy resistance” (WESTERN UNIVERSITY OF HEALTH SCIENCES, priority 2012, dated 2018)
Where two headings read alike, the source gives them in different places.

Columns and labels:
DU145-TxR cells = test: SRB cell viability assay, docetaxel-resistant DU145-TxR cells; assay type: cell-based; details: Homo sapiens, read-out: % viable, DU145-TxR; for viability at 0.1 µM: docetaxel 100 nM 72 h; for viability at 1 pM: docetaxel 0.001 nM 72 h; for viability at 0.0001 µM: docetaxel 0.1 nM 72 h; for viability at 0.000333 µM: docetaxel 0.333 nM 72 h; for viability at 0.001 µM: docetaxel 1 nM 72 h; for viability at 0.00333 µM: docetaxel 3.33 nM 72 h; for viability at 0.01 µM: docetaxel 10 nM 72 h; for viability at 0.0333 µM: docetaxel 33.3 nM 72 h
Experimental: Using the methods described in Example 2, the chemosensitizing effect of LGT-E pretreatment on docetaxel-treated DU145-TrX cells was studied. […] The DU145-TxR cells were plated at passage 38. […] Tables 6, 8, and 10 report control data obtained from DU145-TxR cells that were not pre-treated with LGT-E. FIG. 4 summarizes the data of Tables 5-10 in a graphical format.

K562/Dox cells = test: SRB cell viability assay, daunorubicin-resistant K562/Dox cells; assay type: cell-based, human; details: 72 h, background = 0.043

## CC(=O)O[C@@]12CO[C@@H]1C[C@H](O)[C@@]1(C)C(=O)[C@H](O)C3=C(C)[C@@H](OC(=O)[C@H](O)[C@@H](NC(=O)OC(C)(C)C)c4ccccc4)C[C@@](O)([C@@H](OC(=O)c4ccccc4)[C@H]21)C3(C)C [Docetaxel, docetaxel]
DU145-TxR cells; LGT-E 50 μg/ml pre-treatment
  viability at 0.1 µM: 5.5%
DU145-TxR cells; LGT-E […] pre-treatment
  viability at 1 pM: 100%
  viability at 0.0001 µM: 98.1%
  viability at 0.000333 µM: 96%
  viability at 0.001 µM: 98.1%
  viability at 0.00333 µM: 91.5%
  viability at 0.01 µM: 82.9%
  viability at 0.0333 µM: 41%
  viability at 0.1 µM: 17.5%
DU145-TxR cells; no pre-treatment (Table 6)
  viability at 1 pM: 100%
  viability at 0.0001 µM: 103%
  viability at 0.000333 µM: 102%
  viability at 0.001 µM: 102%
  viability at 0.00333 µM: 102%
  viability at 0.01 µM: 102%
  viability at 0.0333 µM: 101%
  viability at 0.1 µM: 94.8%
DU145-TxR cells; no pre-treatment (Table 8)
  viability at 1 pM: 100%
  viability at 0.0001 µM: 102%
  viability at 0.000333 µM: 102%
  viability at 0.001 µM: 102%
  viability at 0.00333 µM: 102%
  viability at 0.01 µM: 100%
  viability at 0.0333 µM: 98.1%
  viability at 0.1 µM: 91%
DU145-TxR cells; no pre-treatment (Table 10)
  viability at 1 pM: 100%
  viability at 0.0001 µM: 101%
  viability at 0.000333 µM: 97.7%
  viability at 0.001 µM: 99.3%
  viability at 0.00333 µM: 98.8%
  viability at 0.01 µM: 97.2%
  viability at 0.0333 µM: 95.4%
  viability at 0.1 µM: 90.9%
K562/Dox cells; Docetaxel 0.001 nM (so in the source), no LGT-E pre-treatment
  mean A at 565 nm: 2.771
K562/Dox cells; Docetaxel 0.001 nM (so in the source), pre-treated with 25 μg/ml LGT-E
  mean A at 565 nm: 2.747
K562/Dox cells; Docetaxel 0.1 nM (so in the source), no LGT-E pre-treatment
  mean A at 565 nm: 2.933
K562/Dox cells; Docetaxel 0.1 nM (so in the source), pre-treated with 25 μg/ml LGT-E
  mean A at 565 nm: 2.848
K562/Dox cells; Docetaxel 0.333 nM (so in the source), no LGT-E pre-treatment
  mean A at 565 nm: 2.960
K562/Dox cells; Docetaxel 0.333 nM (so in the source), pre-treated with 25 μg/ml LGT-E
  mean A at 565 nm: 2.811
K562/Dox cells; Docetaxel 1 nM (so in the source), no LGT-E pre-treatment
  mean A at 565 nm: 2.509
K562/Dox cells; Docetaxel 1 nM (so in the source), pre-treated with 25 μg/ml LGT-E
  mean A at 565 nm: 2.706
K562/Dox cells; Docetaxel 3.33 nM (so in the source), no LGT-E pre-treatment
  mean A at 565 nm: 2.848
K562/Dox cells; Docetaxel 3.33 nM (so in the source), pre-treated with 25 μg/ml LGT-E
  mean A at 565 nm: 2.300
K562/Dox cells; Docetaxel 10 nM (so in the source), no LGT-E pre-treatment
  mean A at 565 nm: 2.716
K562/Dox cells; Docetaxel 10 nM (so in the source), pre-treated with 25 μg/ml LGT-E
  mean A at 565 nm: 1.259
K562/Dox cells; Docetaxel 33.3 nM (so in the source), pre-treated with 25 μg/ml LGT-E
  mean A at 565 nm: 1.175
K562/Dox cells; Docetaxel 100 nM (so in the source), no LGT-E pre-treatment
  mean A at 565 nm: 0.723
K562/Dox cells; Docetaxel 100 nM (so in the source), pre-treated with 25 μg/ml LGT-E
  mean A at 565 nm: 0.510
